Results from patent US11654199B2 (BOLT BIOTHERAPEUTICS, INC., priority 2019, dated 2023).
pEC50: −log10 of the molar value.

What was measured:
[1] = molecular target: T1, human TLR8 (Homo sapiens, UniProt Q9NR97); assay: HEK293 NFKB reporter assay, human TLR8; format: cell-based; conditions: HEK293 NFKB reporter cells expressing human TLR8; read-out: HEK293 hTLR8 EC50
T1 construct: host or cells: HEK293 reporter cells
T1 sequence (Q9NR97 27-1041): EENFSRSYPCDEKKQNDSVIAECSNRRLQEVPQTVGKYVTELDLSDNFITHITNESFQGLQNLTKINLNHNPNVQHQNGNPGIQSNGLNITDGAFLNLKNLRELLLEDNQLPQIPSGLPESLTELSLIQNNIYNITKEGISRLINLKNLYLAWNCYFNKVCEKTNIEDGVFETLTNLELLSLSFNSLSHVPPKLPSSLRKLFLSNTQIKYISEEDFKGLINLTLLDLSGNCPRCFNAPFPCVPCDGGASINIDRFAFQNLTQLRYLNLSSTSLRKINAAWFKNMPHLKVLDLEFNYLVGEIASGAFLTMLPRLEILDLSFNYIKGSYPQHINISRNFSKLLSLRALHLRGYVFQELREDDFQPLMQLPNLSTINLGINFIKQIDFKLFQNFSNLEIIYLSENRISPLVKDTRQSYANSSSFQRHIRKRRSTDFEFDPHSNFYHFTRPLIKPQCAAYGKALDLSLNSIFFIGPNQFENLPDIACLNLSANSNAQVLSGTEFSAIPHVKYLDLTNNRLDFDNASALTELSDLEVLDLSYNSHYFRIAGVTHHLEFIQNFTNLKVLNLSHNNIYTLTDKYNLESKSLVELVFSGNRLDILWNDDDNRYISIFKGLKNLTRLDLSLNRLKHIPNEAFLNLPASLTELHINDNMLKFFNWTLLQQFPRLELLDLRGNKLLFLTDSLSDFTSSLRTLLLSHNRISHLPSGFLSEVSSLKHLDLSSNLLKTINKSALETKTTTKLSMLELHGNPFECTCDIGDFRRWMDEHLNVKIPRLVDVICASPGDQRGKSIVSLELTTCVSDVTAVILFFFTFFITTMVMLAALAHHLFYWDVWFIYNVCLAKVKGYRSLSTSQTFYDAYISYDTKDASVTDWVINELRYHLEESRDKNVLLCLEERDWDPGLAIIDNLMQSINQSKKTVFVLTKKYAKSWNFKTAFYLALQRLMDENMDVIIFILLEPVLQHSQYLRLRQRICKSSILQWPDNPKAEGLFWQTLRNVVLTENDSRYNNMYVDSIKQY
Description: (§1) Each compound was synthesized, purified, and characterized by mass spectrometry and shown to have the mass indicated. Additional experimental procedures are found in the Examples. Activity against HEK293 NFKB reporter cells expressing human TLR7 or human TLR8 was measured according to Example 202.
(§2) HEK293 reporter cells expressing human TLR7 or human TLR8 were purchased from Invivogen and vendor protocols were followed for cellular propagation and experimentation. Briefly, cells were grown to 80-85% confluence at 5% CO2 in DMEM supplemented with 10% FBS, Zeocin, and Blasticidin. Cells were then seeded in 96-well flat plates at 4×10^4 cells/well with substrate containing HEK detection medium and immunostimulatory molecules. Activity was measured using a plate reader at 620-655 nm wavelength.

[2] = molecular target: T2, human TLR7 (Homo sapiens, UniProt Q9NYK1); assay: HEK293 NFKB reporter assay, human TLR7; format: cell-based; conditions: HEK293 NFKB reporter cells expressing human TLR7; read-out: HEK293 hTLR7 EC50
T2 construct: host or cells: HEK293 reporter cells
T2 sequence (Q9NYK1 27-1049): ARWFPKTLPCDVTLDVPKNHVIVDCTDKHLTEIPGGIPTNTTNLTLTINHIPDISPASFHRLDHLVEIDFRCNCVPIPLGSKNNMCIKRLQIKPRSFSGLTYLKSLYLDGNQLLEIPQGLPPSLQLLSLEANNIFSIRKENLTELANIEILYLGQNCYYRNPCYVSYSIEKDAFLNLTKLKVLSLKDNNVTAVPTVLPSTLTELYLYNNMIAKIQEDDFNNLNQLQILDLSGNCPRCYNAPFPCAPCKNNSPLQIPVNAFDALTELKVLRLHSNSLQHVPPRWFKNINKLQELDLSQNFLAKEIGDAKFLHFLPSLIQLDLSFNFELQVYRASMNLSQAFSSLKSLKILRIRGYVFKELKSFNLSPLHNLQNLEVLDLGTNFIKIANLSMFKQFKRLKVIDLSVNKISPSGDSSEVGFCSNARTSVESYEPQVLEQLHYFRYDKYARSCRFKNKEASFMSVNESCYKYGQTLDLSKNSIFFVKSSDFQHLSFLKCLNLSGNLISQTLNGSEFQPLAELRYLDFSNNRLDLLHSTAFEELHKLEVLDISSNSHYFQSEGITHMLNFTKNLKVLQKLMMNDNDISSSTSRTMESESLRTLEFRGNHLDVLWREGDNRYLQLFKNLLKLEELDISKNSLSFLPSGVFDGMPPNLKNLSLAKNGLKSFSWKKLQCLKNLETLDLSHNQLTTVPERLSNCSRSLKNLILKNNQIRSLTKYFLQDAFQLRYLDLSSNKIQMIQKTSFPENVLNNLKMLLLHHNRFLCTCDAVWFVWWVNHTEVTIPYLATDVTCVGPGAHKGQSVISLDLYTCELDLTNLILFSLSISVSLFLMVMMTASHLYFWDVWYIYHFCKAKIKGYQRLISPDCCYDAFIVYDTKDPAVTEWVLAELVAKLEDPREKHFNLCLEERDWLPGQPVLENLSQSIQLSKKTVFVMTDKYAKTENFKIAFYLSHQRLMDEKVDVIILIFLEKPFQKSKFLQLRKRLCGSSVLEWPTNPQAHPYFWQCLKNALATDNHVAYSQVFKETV
Description: as §1, §2

Row | pEC50 [1] | pEC50 [2] | SMILES
1 | < 5.05 | < 5.05 | CCCN(CCC)C(=O)C1=Cc2sc(C#CCCCNC(=O)OC(C)(C)C)cc2N=C(N)C1 [TAZ-6, tert-butyl N-[5-[5-amino-7-(dipropylcarbamoyl)-6H-thieno[3,2-b]azepin-2-yl]pent-4-ynyl] carbamate]
2 | 5.81 | 6.23 | CCCN(CCCNC(=O)OC(C)(C)C)C(=O)C1=Cc2sccc2N=C(N)C1 [TAZ-8, tert-butyl N-[3-[(5-amino-6H-thieno[3,2-b]azepine-7-carbonyl)-propyl-amino]propyl]carbamate]
3 | < 5.05 | < 5.05 | CCCN(CCC)C(=O)C1=Cc2sc(C(=O)NCCCNC(=O)OC(C)(C)C)cc2N=C(N)C1 [TAZ-31]
4 | < 5.05 | < 5.05 | CCCN(CCC)C(=O)C1=Cc2sc(C(=O)NCCCN)cc2N=C(N)C1 [TAZ-32]
5 | < 5.05 | < 5.05 | CCCN(CCC)C(=O)C1=Cc2sc(C#CCCCN)cc2N=C(N)C1 [TAZ-33]
6 | 6.47 | < 5.05 | CCCN(Cc1ccc(CN2CCN(C(=O)OC(C)(C)C)CC2)cc1)C(=O)C1=Cc2sccc2N=C(N)C1 [TAZ-34]
7 | 5.54 | < 5.05 | CCCN(CCC)C(=O)C1=Cc2sc(C#CCCN)cc2N=C(N)C1 [TAZ-35]
8 | < 5.05 | 5.07 | CCCN(CCC)C(=O)C1=Cc2sc(CCCCNC(=O)OC(C)(C)C)cc2N=C(N)C1 [TAZ-36]
9 | 5.43 | 5.38 | CCCN(CCC)C(=O)C1=Cc2sc(CCCCN)cc2N=C(N)C1 [TAZ-38]
10 | < 5.05 | < 5.05 | CCCN(Cc1ccccc1)C(=O)C1=Cc2sccc2N=C(N)C1 [TAZ-39]
11 | < 5.05 | < 5.05 | CCCN(CC12CC(CNC(=O)OC(C)(C)C)(C1)C2)C(=O)C1=Cc2sccc2N=C(N)C1 [TAZ-40]
12 | < 5.05 | < 5.05 | CCCN(CC12CC(CN)(C1)C2)C(=O)C1=Cc2sccc2N=C(N)C1 [TAZ-41]
13 | < 5.05 | < 5.05 | CCCN(Cc1ccc(CNC(=O)OC(C)(C)C)cn1)C(=O)C1=Cc2sccc2N=C(N)C1 [TAZ-42]
14 | < 5.05 | < 5.05 | CCCN(CCC)C(=O)C1=Cc2sc(CN3CCN(C(=O)OC(C)(C)C)CC3)cc2N=C(N)C1 [TAZ-43]
15 | 6.23 | 5.34 | CCCN(CCC)C(=O)C1=Cc2sc(CN3CCNCC3)cc2N=C(N)C1 [TAZ-44]
16 | 5.75 | < 5.05 | CCCN(Cc1ccc(CNC(C)=O)cc1)C(=O)C1=Cc2sccc2N=C(N)C1 [TAZ-45]
17 | 5.80 | < 5.05 | CCCN(Cc1ccc(CNC(=O)CCOC)cc1)C(=O)C1=Cc2sccc2N=C(N)C1 [TAZ-46]
18 | < 5.05 | < 5.05 | CCCN(CC12CC(CN(C)C)(C1)C2)C(=O)C1=Cc2sccc2N=C(N)C1 [TAZ-47]
19 | < 5.05 | < 5.05 | CCCN(C[C@H]1C[C@@H](CNC(=O)OC(C)(C)C)C1)C(=O)C1=Cc2sccc2N=C(N)C1 [TAZ-48]
20 | < 5.05 | < 5.05 | CCCN(C[C@H]1C[C@@H](CN)C1)C(=O)C1=Cc2sccc2N=C(N)C1 [TAZ-49]
21 | 5.10 | 5.15 | [2H]C1=C(C(=O)N(CCC)Cc2ccc(CNC(=O)OC(C)(C)C)nc2)CC(N)=Nc2ccsc21 [TAZ-50]
22 | 5.25 | < 5.05 | CCCN(Cc1ccc(CNC(=O)OC(C)(C)C)cc1C(F)(F)F)C(=O)C1=Cc2sccc2N=C(N)C1 [TAZ-51]

Row | pEC50 [1] | pEC50 [2] | SMILES
23 | 6.82 | 5.57 | CCCN(Cc1ccc(CN)cc1C(F)(F)F)C(=O)C1=Cc2sccc2N=C(N)C1 [TAZ-52, 5-amino-N-[[4-(aminomethyl)-2-(trifluoromethyl)phenyl]methyl]-N-propyl-6H-thieno[3,2-b]azepine-7-carboxamide]
24 | 6.74 | 5.44 | CCCN(OCC)C(=O)C1=Cc2sccc2N=C(N)C1 [TAZ-53]
25 | < 5.05 | < 5.05 | CCCN(CCC)C(=O)C1=Cc2sc(S(=O)(=O)NCCCNC(=O)OC(C)(C)C)cc2N=C(N)C1 [TAZ-55]
26 | < 5.05 | < 5.05 | CCCN(CCC)C(=O)C1=Cc2sc(S(=O)(=O)NCCCN)cc2N=C(N)C1 [TAZ-56]
27 | 5.41 | 5.98 | CCCN(Cc1cnc(CNC(=O)OC(C)(C)C)cn1)C(=O)C1=Cc2sccc2N=C(N)C1 [TAZ-57]
28 | 5.89 | < 5.05 | CCCN(Cc1ccc(CCN)cc1)C(=O)C1=Cc2sccc2N=C(N)C1 [TAZ-58]
29 | < 5.05 | < 5.05 | CCCN(Cc1ccc(CCNC(=O)OC(C)(C)C)cc1)C(=O)C1=Cc2sccc2N=C(N)C1 [TAZ-59]
30 | 6.75 | 5.08 | CCCN(Cc1cnc(CN)cn1)C(=O)C1=Cc2sccc2N=C(N)C1 [TAZ-62]
31 | 6.29 | 5.38 | CCCN(Cc1ccc(CN)nc1)C(=O)C1=Cc2sccc2N=C(N)C1 [TAZ-63]
32 | 5.56 | 5.30 | CCCN(CCC(F)(F)F)C(=O)C1=Cc2sccc2N=C(N)C1 [TAZ-64]
33 | 5.37 | 5.35 | CCCN(CCC)C(=O)C1=Cc2sc(COCCCNC(=O)OC(C)(C)C)cc2N=C(N)C1 [TAZ-66]
34 | 7.12 | 5.18 | CCCN(Cc1ccc(CN)nc1C(F)(F)F)C(=O)C1=Cc2sccc2N=C(N)C1 [TAZ-70]
35 | 5.55 | 5.50 | CCCN(OCC)C(=O)C1=Cc2sc(C#CCCCNC(=O)OC(C)(C)C)cc2N=C(N)C1 [TAZ-72]
36 | 6.52 | 5.39 | CCON(CCC(F)(F)F)C(=O)C1=Cc2sccc2N=C(N)C1 [TAZ-74]
37 | 5.69 | 5.29 | CCCN(OCC)C(=O)C1=Cc2sc(CCCCCNC(=O)OC(C)(C)C)cc2N=C(N)C1 [TAZ-75]
38 | 5.85 | 5.46 | CCCN(OCC)C(=O)C1=Cc2sc(CCCCCN)cc2N=C(N)C1 [TAZ-76]
39 | 7.23 | 5.41 | NCc1ccc(CN(CCC(F)(F)F)C(=O)C2=Cc3sccc3N=C(N)C2)cc1 [TAZ-77]
40 | 5.38 | < 5.05 | CCON(Cc1ccc(CN)cc1)C(=O)C1=Cc2sccc2N=C(N)C1 [TAZ-79]
41 | 5.42 | 5.40 | CCCN(CCC)C(=O)C1=Cc2sc(COCCNC(=O)OC(C)(C)C)cc2N=C(N)C1 [TAZ-80]
42 | 5.54 | 5.30 | CCCN(Cc1ccc(CN(C)C)cc1)C(=O)C1=Cc2sc(CCCCCN)cc2N=C(N)C1 [TAZ-82]
43 | 5.47 | 5.45 | CCCN(CCc1ccc(OC)cc1)C(=O)C1=Cc2sccc2N=C(N)C1 [TAZ-83]
